By inhibition is commonly meant the relative decrease from the control value, in per cent.

Holding throughout (details): Neuro2a, 3 nM
In experiment [1] the target is T1, Fatty-acid amide hydrolase 1 (Mus musculus) (UniProt O08914).
T1 sequence (whole entry): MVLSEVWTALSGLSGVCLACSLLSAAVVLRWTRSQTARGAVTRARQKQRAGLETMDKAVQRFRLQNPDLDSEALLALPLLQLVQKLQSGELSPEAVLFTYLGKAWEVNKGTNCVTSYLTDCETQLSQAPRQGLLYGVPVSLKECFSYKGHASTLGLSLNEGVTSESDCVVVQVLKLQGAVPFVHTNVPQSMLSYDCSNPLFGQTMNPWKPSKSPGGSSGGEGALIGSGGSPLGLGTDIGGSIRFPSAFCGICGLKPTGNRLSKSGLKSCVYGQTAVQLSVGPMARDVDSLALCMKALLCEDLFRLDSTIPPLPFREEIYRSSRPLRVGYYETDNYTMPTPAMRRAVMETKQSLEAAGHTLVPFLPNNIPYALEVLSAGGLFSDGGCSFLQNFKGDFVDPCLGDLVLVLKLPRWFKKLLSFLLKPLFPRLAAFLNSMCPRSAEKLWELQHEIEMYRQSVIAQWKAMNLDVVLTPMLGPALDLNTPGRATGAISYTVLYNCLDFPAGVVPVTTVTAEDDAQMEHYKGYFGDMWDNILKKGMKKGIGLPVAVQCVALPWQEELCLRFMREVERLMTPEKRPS
Description: Inhibition of Faah in mouse Neuro2a cells at 3 nM after 4 hrs by ABPP-SILAC assay

For experiment [2], the target named is T2, Monoacylglycerol lipase ABHD6 (Mus musculus) (UniProt Q8R2Y0).
T2 sequence (whole entry): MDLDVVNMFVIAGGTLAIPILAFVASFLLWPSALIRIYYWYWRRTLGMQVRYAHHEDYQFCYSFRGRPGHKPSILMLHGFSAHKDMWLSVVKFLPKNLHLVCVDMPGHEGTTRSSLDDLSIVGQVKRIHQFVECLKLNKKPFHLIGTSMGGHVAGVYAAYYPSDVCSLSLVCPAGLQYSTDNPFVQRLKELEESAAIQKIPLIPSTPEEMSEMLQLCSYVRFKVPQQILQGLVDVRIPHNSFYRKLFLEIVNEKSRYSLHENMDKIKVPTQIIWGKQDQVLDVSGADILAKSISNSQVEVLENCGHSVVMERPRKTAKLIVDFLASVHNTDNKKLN

Experiment [3] addresses T3, Acylamino-acid-releasing enzyme (Mus musculus) (UniProt Q8R146).
T3 sequence (whole entry): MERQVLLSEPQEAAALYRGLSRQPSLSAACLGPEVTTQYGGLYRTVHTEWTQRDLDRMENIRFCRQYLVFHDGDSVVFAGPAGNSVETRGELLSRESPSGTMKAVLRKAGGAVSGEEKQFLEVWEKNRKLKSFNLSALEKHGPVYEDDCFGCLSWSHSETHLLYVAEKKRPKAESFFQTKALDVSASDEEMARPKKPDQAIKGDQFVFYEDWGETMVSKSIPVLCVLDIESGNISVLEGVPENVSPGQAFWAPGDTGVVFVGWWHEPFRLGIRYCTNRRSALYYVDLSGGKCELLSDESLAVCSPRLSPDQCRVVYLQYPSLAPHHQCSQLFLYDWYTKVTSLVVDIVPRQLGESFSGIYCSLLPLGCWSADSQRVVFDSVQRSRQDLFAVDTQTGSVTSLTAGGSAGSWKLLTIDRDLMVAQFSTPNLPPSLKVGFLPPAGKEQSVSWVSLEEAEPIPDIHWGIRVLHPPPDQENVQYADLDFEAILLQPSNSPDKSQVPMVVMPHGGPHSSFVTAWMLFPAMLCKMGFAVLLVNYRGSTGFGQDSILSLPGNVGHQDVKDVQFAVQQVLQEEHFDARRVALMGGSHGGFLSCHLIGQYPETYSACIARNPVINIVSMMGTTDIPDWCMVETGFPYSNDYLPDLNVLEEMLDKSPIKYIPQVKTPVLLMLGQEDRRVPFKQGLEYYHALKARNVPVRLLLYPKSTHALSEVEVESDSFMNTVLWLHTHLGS
Description: Inhibition of Apeh in mouse Neuro2a cells at 3 nM after 4 hrs by ABPP-SILAC assay

Experiment [4] addresses T4, Lysophospholipase-like protein 1 (Mus musculus) (UniProt Q3UFF7).
T4 sequence (whole entry): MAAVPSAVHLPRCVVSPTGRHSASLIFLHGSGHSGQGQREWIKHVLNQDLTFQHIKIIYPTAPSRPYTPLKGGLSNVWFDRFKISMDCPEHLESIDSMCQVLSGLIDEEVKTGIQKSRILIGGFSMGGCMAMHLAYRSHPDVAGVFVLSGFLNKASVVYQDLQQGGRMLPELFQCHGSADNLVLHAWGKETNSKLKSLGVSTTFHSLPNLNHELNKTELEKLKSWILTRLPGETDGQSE
Description: Inhibition of Lyplal1 in mouse Neuro2a cells at 3 nM after 4 hrs by ABPP-SILAC assay

The target of experiment [5] is T5, Rhomboid-related protein 4 (Mus musculus) (UniProt Q8BHC7).
T5 sequence (whole entry): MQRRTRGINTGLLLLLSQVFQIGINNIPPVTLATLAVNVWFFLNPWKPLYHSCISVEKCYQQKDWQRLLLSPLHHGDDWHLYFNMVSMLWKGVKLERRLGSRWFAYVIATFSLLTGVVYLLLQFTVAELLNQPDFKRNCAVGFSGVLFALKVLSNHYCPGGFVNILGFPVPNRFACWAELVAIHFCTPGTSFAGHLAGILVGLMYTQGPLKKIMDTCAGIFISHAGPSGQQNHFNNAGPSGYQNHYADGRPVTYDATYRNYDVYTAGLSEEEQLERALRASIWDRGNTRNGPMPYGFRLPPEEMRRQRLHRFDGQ
Description: Inhibition of Rhbdd1 in mouse Neuro2a cells at 3 nM after 4 hrs by ABPP-SILAC assay

Experiment [6] concerns the target T6, Protein ABHD13 (Mus musculus) (UniProt Q80UX8).
T6 sequence (whole entry): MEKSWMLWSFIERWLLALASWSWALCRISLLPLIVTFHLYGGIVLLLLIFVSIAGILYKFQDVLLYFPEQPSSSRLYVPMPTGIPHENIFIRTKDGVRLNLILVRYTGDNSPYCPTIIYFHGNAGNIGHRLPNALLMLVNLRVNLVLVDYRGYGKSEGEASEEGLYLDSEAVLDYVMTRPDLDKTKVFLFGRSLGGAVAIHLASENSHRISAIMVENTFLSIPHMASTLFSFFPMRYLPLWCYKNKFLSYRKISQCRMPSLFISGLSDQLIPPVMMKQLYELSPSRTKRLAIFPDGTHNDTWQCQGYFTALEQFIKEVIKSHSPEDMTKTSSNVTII
Description: Inhibition of Abhd13 in mouse Neuro2a cells at 3 nM after 4 hrs by ABPP-SILAC assay

As to `O=C(N1CCCCC1c1ccccc1)n1cc(-c2ccc(-c3cccc(CO)c3)cc2)nn1` (racemic), the inhibition in experiment [1] is less than 50%; in experiment [2], greater than 90%; in experiment [3] it was less than 50%; in experiment [4] it was less than 50%; in experiment [5], less than 50%; in experiment [6], less than 50%.
For the molecule `O=C(c1cccc(-c2ccc(-c3cn(C(=O)N4CCCCC4c4ccccc4)nn3)cc2)c1)N1CCCCC1` (racemic), the inhibition in experiment [1] was less than 50%; in experiment [2] it was greater than 80%; in experiment [3] it was less than 50%; in experiment [4], less than 50%; in experiment [5], less than 50%; in experiment [6], less than 50%.
`O=C(O)c1cccc(-c2ccc(-c3cn(C(=O)N4CCCCC4Cc4ccccc4)nn3)cc2)c1` (racemic): the inhibition in experiment [1] was less than 50%; in experiment [2], greater than 90%; in experiment [3] it was less than 50%; in experiment [4], less than 50%; in experiment [5] it was less than 50%; in experiment [6], less than 50%.

The values are drawn from ChEMBL document CHEMBL3259629, “Discovery and optimization of piperidyl-1,2,3-triazole ureas as potent, selective, and in vivo-active inhibitors of α/β-hydrolase domain containing 6 (ABHD6)” (J Med Chem, 2013).
